This passage reports IC50 and Kd results from patent US20130261077A1 (priority 2012, published 2013).

A word on the IC50: it is the point on the concentration scale where inhibition reaches its midpoint. Read a high IC50 as weaker potency in that assay. The Kd is a measure of binding affinity in units of concentration. A lower Kd goes with tighter binding.

The structures appear in SMILES notation.

For the assay, the target named is T1, FimH-CRD (Escherichia coli, UniProt P08191).
T1 construct: The first 177 amino acids of the FimH protein; thrombin tag (printed as 'fusion protein with thrombin') (cleaved yes); made in house; host or cells: bacteria (pET21b plasmid)
T1 sequence (P08191 22-177): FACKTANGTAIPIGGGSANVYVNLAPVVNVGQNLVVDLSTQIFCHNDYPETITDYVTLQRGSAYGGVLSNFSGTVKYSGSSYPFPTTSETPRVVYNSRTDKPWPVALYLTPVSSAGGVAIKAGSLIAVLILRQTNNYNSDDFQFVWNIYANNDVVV
The assay is described as follows: Competitive binding assay by fluorescence polarization, assay 1 (compounds prepared by manual serial dilution). On the procedure: The first 177 amino acids of the FimH protein were expressed as a fusion protein with thrombin in a pET21b plasmid in bacteria. This FimH protein sequence contains the carbohydrate recognition domain (CRD) and shall be termed FimH-CRD. Following bacterial expression of the protein, the FimH-CRD protein was purified to homogeneity and the thrombin tag removed by protease cleavage. A competitive binding assay by fluorescence polarization was performed using 5 nM of the Alexa 647 mannoside probe and 60 nM of the FimH-CRD. The samples are assayed in a low volume 384 well microtiter plate in a final volume of 20 μl. The final assay buffer conditions are the following, 50 mM Tris-Cl, ph 7.0, 100 mM NaCl, 1 mM EDTA, 5 mM β-mercaptoethanol, 0.05% BSA and 2.5% DMSO. Two assays are performed for FimH, termed assay 1 or assay 2. The assay conditions are the same for both assays except the following: assay 1 has compounds prepared by manual dilution in a serial dilution factor with 12-point dose response while assay 2 has compounds prepared by a robotics system also through a serial dilution factor (12 point dose response) and initially prepared in duplicate in 384 well-Corning polypropylene round bottom plates. The assay 2 plates have compound which is then frozen and must be thawed prior to use. Initially the Alexa 647 probe and the FimH-CRD are added to the assay buffer and then 0.5 μl of test compound (assay 1 or 2) between 0.4 nM to 75 μM final concentration are added (12 point titration with 3-fold serial dilution). Control wells for the Alexa 647 probe are prepared with the same conditions except for the addition of the FimH-CRD protein. Plates are then incubated for 5 hrs at room temperature in the dark and under humid conditions to prevent drying. Plates are read using the SpectraMax Paradigm multi-mode plate reader and the appropriate fluorescent polarization detection cartridge (Alexa-647).
Alexa 647 mannoside probe is prepared using the similar procedure reported for FAM mannoside (Han, Z. et. al., 2010, J. Med. Chem., 53, 4779) and is described in the scheme below.
To a blue colored stirred solution of (2S,3S,4S,5S,6R)-2-(4-aminobutoxy)-6-(hydroxymethyl)tetrahydropyran-3,4,5-triol (2.21 mg, 0.009 mmol) and the (2E)-2-[(2E,4E)-5-[3,3-dimethyl-5-sulfonato-1-(3-sulfonatopropyl)indol-1-ium-2-yl]penta-2,4-dienylidene]-3-[6-(2,5-dioxopyrrolidin-1-yl)oxy-6-oxo-hexyl]-3-methyl-1-(3-sulfonatopropyl)indoline-5-sulfonate (Potassium Ion (3)) (4.9 mg, 0.0044 mmol) in DMF (44 μL) is added Et3N (5.4 mg, 7.0 μL, 0.053 mmol) at RT. The solution is stirred at room temperature over night, concentrated, dissolved in water and purified on 12 g C-18 silica gel cartridge on Isolera system using acetonitrile in water (0 to 40%, 10 CV) and followed by lyophilization to afford Alexa 647 mannoside probe (3.3 mg, 34%) as deep blue solid.
The Kd values of the compounds are determined from dose response curves using twelve concentrations per compound in duplicate. Curves are fitted to data points using Fluorescence Polarization competitive displacement analysis, and Kds are interpolated from the resulting curves using GraphPad Prism software, version […] (GraphPad software Inc., San Diego, Calif., USA).
The compound `OC[C@H]1O[C@H](c2cccc(Oc3ccc(F)cc3)c2)[C@@H](O)[C@@H](O)[C@@H]1O` [Compound 57, (2R,3S,4R,5S,6R)-2-[3-(4-fluorophenoxy)phenyl]-6-(hydroxymethyl)tetrahydropyran-3,4,5-triol] registered an IC50 of 76 nM and a Kd of 13.2 ± 0.2 nM.
In the same order, the values of `Cc1cc(C)cc(Oc2cccc([C@H]3O[C@H](CO)[C@@H](O)[C@H](O)[C@@H]3O)c2)c1` [Compound 58, (2R,3S,4R,5S,6R)-2-[3-(3,5-dimethylphenoxy)phenyl]-6-(hydroxymethyl)tetrahydropyran-3,4,5-triol] are 66 nM and 11.1 ± 1.6 nM.
`OC[C@H]1O[C@H](c2cccc(Oc3ccccc3)c2)[C@@H](O)[C@@H](O)[C@@H]1O` [Compound 59, (2R,3S,4R,5S,6R)-2-(hydroxymethyl)-6-(3-phenoxyphenyl)tetrahydropyran-3,4,5-triol] had an IC50 of 26 nM and a Kd of 6.3 ± 0.9 nM.
In the case of `COc1ccc([C@H]2O[C@H](CO)[C@@H](O)[C@H](O)[C@@H]2O)cc1O` [Compound 61, (2R,3S,4R,5S,6R)-2-(3-hydroxy-4-methoxy-phenyl)-6-(hydroxymethyl)tetrahydropyran-3,4,5-triol], the IC50 came to 42 nM and the Kd amounted to 17.2 ± 10.7 nM.
In the same order, the values of `CNC(=O)c1cc(C(=O)NC)cc(-c2cccc([C@H]3O[C@H](CO)[C@@H](O)[C@H](O)[C@@H]3O)c2)c1` [Compound 63, N^3,N^5-dimethyl-3′-((2R,3S,4R,5S,6R)-3,4,5-trihydroxy-6-(hydroxymethyl)tetrahydro-2H-pyran-2-yl)-[1,1′-biphenyl]-3,5-dicarboxamide] are 19 nM and 25.4 ± 14.4 nM.
The corresponding values for `COC(=O)Cc1cccc(-c2cccc([C@H]3O[C@H](CO)[C@@H](O)[C@H](O)[C@@H]3O)c2)c1` [Compound 65, Methyl 2-(3′-((2R,3S,4R,5S,6R)-3,4,5-trihydroxy-6-(hydroxymethyl)tetrahydro-2H-pyran-2-yl)-[1,1′-biphenyl]-3-yl)acetate] are 18 nM and 5.2 ± 0.1 nM.
In the same order, the values of `COC(=O)Cc1ccccc1-c1cccc([C@H]2O[C@H](CO)[C@@H](O)[C@H](O)[C@@H]2O)c1` [Compound 66, Methyl 2-(3′-((2R,3S,4R,5S,6R)-3,4,5-trihydroxy-6-(hydroxymethyl)tetrahydro-2H-pyran-2-yl)-[1,1′-biphenyl]-2-yl)acetate] are 24 nM and 14.3 ± 6.6 nM.
`OC[C@H]1O[C@H](c2ccc(Cl)c(O)c2)[C@@H](O)[C@@H](O)[C@@H]1O` [Compound 67, (2R,3S,4R,5S,6R)-2-(4-chloro-3-hydroxyphenyl)-6-(hydroxymethyl)tetrahydro-2H-pyran-3,4,5-triol] came in with an IC50 of 106 nM and a Kd of 21 ± 4.3 nM.
The corresponding values for `O=C(Nc1cccs1)Oc1cccc([C@H]2O[C@H](CO)[C@@H](O)[C@H](O)[C@@H]2O)c1` [Compound 69, 3-((2R,3S,4R,5S,6R)-3,4,5-trihydroxy-6-(hydroxymethyl)tetrahydro-2H-pyran-2-yl)phenyl thiophen-2-ylcarbamate] are 66 nM and 13.1 ± 0.7 nM.
In the same order, the values of `O=C(Nc1ccc(F)cc1)Oc1cccc([C@H]2O[C@H](CO)[C@@H](O)[C@H](O)[C@@H]2O)c1` [Compound 70, 3-((2R,3S,4R,5S,6R)-3,4,5-trihydroxy-6-(hydroxymethyl)tetrahydro-2H-pyran-2-yl)phenyl (4-fluorophenyl)carbamate] are 46 nM and 11.6 ± 4.2 nM.
In the same order, the values of `CN(C)c1ccc(NC(=O)Oc2cccc([C@H]3O[C@H](CO)[C@@H](O)[C@H](O)[C@@H]3O)c2)cc1` [Compound 71, 3-((2R,3S,4R,5S,6R)-3,4,5-trihydroxy-6-(hydroxymethyl)tetrahydro-2H-pyran-2-yl)phenyl (4-(dimethylamino)phenyl)carbamate] are 67 nM and 14.6 ± 2.3 nM.
`C[C@@H](NC(=O)Oc1cccc([C@H]2O[C@H](CO)[C@@H](O)[C@H](O)[C@@H]2O)c1)c1ccccc1` [Compound 72, 3-((2R,3S,4R,5S,6R)-3,4,5-trihydroxy-6-(hydroxymethyl)tetrahydro-2H-pyran-2-yl)phenyl (R)-1-phenylethylcarbamate] had an IC50 of 60 nM and a dissociation constant (Kd) of 16.2 ± 5.4 nM.
The compound `OC[C@H]1O[C@H](c2cccc(C#Cc3cc(Cl)cc(Cl)c3)c2)[C@@H](O)[C@@H](O)[C@@H]1O` [Compound 92, (2R,3S,4R,5S,6R)-2-[3-[2-(3,5-Dichlorophenyl)ethynyl]phenyl]-6-(hydroxymethyl)tetrahydropyran-3,4,5-triol] gave a Kd of 24.9 ± 11.3 nM.
Still for that read-out and setting: then `COc1ccc([C@H]2O[C@H](CO)[C@@H](O)[C@H](O)[C@@H]2O)cc1-c1ccc(-c2nnc(C)o2)cc1` [Compound 132, (2R,3S,4R,5S,6R)-2-(hydroxymethyl)-6-[4-methoxy-3-[4-(5-methyl-1,3,4-oxadiazol-2-yl)phenyl]phenyl]tetrahydropyran-3,4,5-triol], with 6.9 ± 0.02 nM.
Compound `Cc1nnc(-c2ccc(C#Cc3cccc([C@H]4O[C@H](CO)[C@@H](O)[C@H](O)[C@@H]4O)c3)cc2)o1` [Compound 133, (2R,3S,4R,5S,6R)-2-(hydroxymethyl)-6-[3-[2-[4-(5-methyl-1,3,4-oxadiazol-2-yl)phenyl]ethynyl]phenyl]tetrahydropyran-3,4,5-triol] showed a Kd of 6.1 ± 1.4 nM.
Still for that read-out and setting: then `Cc1nnc(-c2ccc(C#Cc3ccc([C@H]4O[C@H](CO)[C@@H](O)[C@H](O)[C@@H]4O)cc3)cc2)o1` [Compound 134, (2R,3S,4R,5S,6R)-2-(hydroxymethyl)-6-[4-[2-[4-(5-methyl-1,3,4-oxadiazol-2-yl)phenyl]ethynyl]phenyl]tetrahydropyran-3,4,5-triol], with 54.2 ± 17 nM; and `OC[C@H]1O[C@H](c2cccc(/C=C\c3ccccc3)c2)[C@@H](O)[C@@H](O)[C@@H]1O` [Compound 139, (2R,3S,4R,5S,6R)-2-(hydroxymethyl)-6-[3-[(Z)-styryl]phenyl]tetrahydropyran-3,4,5-triol], with less than 5 nM; and `CNC(=O)c1cccc(COc2ccc(C3O[C@H](CO)[C@@H](O)[C@H](O)[C@@H]3O)cc2)c1` (stereo partly shown) [Compound 248], with 14 ± 8.4 nM.
Same read-out and setting: then `CNC(=O)c1ccc2nc(Oc3cccc([C@H]4O[C@H](CO)[C@@H](O)[C@H](O)[C@@H]4O)c3)sc2c1` [Compound 255, N-methyl-2-[3-[(2R,3S,4R,5S,6R)-3,4,5-trihydroxy-6-(hydroxymethyl)tetrahydropyran-2-yl]phenoxy]-1,3-benzothiazole-6-carboxamide], with 8.7 ± 2 nM.
For `OC[C@H]1O[C@H](O[C@@H]2[C@H](O)[C@@H](c3cccc(O)c3)O[C@H](CO)[C@H]2O)[C@@H](O)[C@@H](O)[C@@H]1O` [Compound 265, (2R,3S,4S,5S,6R)-2-[(2R,3R,4R,5R,6R)-3,5-Dihydroxy-2-(hydroxymethyl)-6-(3-hydroxyphenyl)tetrahydropyran-4-yl]oxy-6-(hydroxymethyl)tetrahydropyran-3,4,5-triol], the IC50 turned out to be 162 nM and the Kd worked out at 52.1 ± 13.8 nM.
In the same order, the values of `OC[C@H]1O[C@H](O[C@@H]2[C@H](O)[C@@H](c3ccc(O)cc3)O[C@H](CO)[C@H]2O)[C@@H](O)[C@@H](O)[C@@H]1O` [Compound 266, (2R,3S,4S,5S,6R)-2-[(2R,3R,4R,5R,6R)-3,5-Dihydroxy-2-(hydroxymethyl)-6-(4-hydroxyphenyl)tetrahydropyran-4-yl]oxy-6-(hydroxymethyl)tetrahydropyran-3,4,5-triol] are 59 nM and 21.3 ± 6.2 nM.
As to `CNC(=O)c1ccc(Oc2cccc([C@H]3O[C@H](CO)[C@@H](O)[C@H](O[C@H]4O[C@H](CO)[C@@H](O)[C@H](O)[C@@H]4O)[C@@H]3O)c2)cc1` [Compound 267, 4-[3-[(2R,3R,4R,5R,6R)-3,5-Dihydroxy-6-(hydroxymethyl)-4-[(2R,3S,4S,5S,6R)-3,4,5-trihydroxy-6-(hydroxymethyl)tetrahydropyran-2-yl]oxy-tetrahydropyran-2-yl]phenoxy]-N-methyl-benzamide], the IC50 was 68 nM and the affinity, expressed as Kd, was 12.8 ± 8 nM.
